Experimental data from publication PMC6154694, “Absorption, Metabolic Stability, and Pharmacokinetics of Ginger Phytochemicals” (Molecules : A Journal of Synthetic Chemistry and Natural …, 2017).

Assays:
[1] = Mouse pharmacokinetic study of oral GE with and without ketoconazole, plasma with and without β-glucuronidase treatment; format: in vivo, male mice (C57BL6J); conditions: for Concentration Ratio (Total/Free) of GE Phenolics: GE administered group; for Concentration Ratio (Total/Free) of GE Phenolics / concentration at 0 h / concentration at 0.087 h / concentration at 0.167 h / concentration at 0.25 h / concentration at 0.5 h / concentration at 1 h / concentration at 2 h / concentration at 3 h / concentration at 4 h / concentration at 6 h / concentration at 8 h / concentration at 12 h: mouse plasma; for AUC(0-t) / Cmax / Tmax / concentration at 0 h / concentration at 0.087 h / concentration at 0.167 h / concentration at 0.25 h / concentration at 0.5 h / concentration at 1 h / concentration at 2 h / concentration at 3 h / concentration at 4 h / concentration at 6 h / concentration at 8 h / concentration at 12 h: male, C57BL6J; for AUC(0-t) / Cmax / Tmax: mouse, plasma, po, 250 mg/kg
Experimental: A solution formulation of GE was prepared by using 5% ethanol, 5% Tween 80, 40% polyethylene glycol, and 50% corn oil. The dose volume was 10 mL/kg and the dose administered was 250 mg/kg GE.
Pharmacokinetic study in male mice (C57BL6J, Harlan Laboratories, Indianapolis, IN, USA) was run with 36 animals in each group at a GE dose of 250 mg/kg with a dose volume of 10 mL/kg. One group was given GE alone and in the second group GE was co-administered with KTZ (50 mg/kg). A terminal sampling design was used to collect blood samples at 0 (pre-dose), 0.08, 0.16, 0.25, 0.5, 1, 2, 3, 4, 6, 8, and 12 h. At each time, 1 mL of blood was collected in ethylenediaminetetraacetic acid di-potassium salt (K2EDTA) tubes (BD Biosciences, Franklin Lakes, NJ, USA). Plasma was separated by centrifugation of samples at 4000 rpm for 10 min and stored below −60 °C till bioanalysis. All experiments were performed with approval from the Institutional Animal Care and Use Committee (IACUC, approval code: A14031). All animals were acclimatized for five days before dosing in the experimental area. Food and water was provided ad libitum throughout the study period. Animals were marked and housed (three per cage, n = 36 per group) in polypropylene cages and maintained in controlled environmental conditions with 12 h light and dark cycles. The temperature and humidity of the room was maintained between 22 ± 3 °C and 30% to 50%, respectively, and approximately 10–12 fresh air change cycles per hour.
To confirm the presence of GE glucuronide conjugates, plasma (100 μL) was treated with βgd (20 μL, 500 units) and incubated at 37 °C for 1 h. Each sample was analyzed twice with and without β-gd treatment. Samples without gde treatment were diluted with 20 μL of buffer. Total (conjugated + free) and free ginger phenolics data were reported following bioanalysis.
All in vitro and in vivo samples were processed by protein precipitation method. An aliquot (100 μL) of the sample was spiked with 200 μL of acetonitrile containing dihydrocapsaicin as internal standard (IS) and vortex mixed for 3 min. The tubes were centrifuged at 12,000 rpm for 10 min and an aliquot of supernatant was transferred into autosampler vials for analysis. The stock solutions of 6G, 8G, 10G, and 6S were prepared in ACN/water (70:30) at 1 mg/mL. A calibration curve (CC) range of 2–2000 ng/mL was employed for the quantification of analytes and IS concentration was 150 ng/mL for each analysis. The CC consisted of blank, blank with IS and seven non-zero calibration standards. The calibration standards were within ±15% of the nominal concentration and lower limit of quantification was within ±20% of nominal. All samples were analyzed using liquid chromatography tandem mass spectrometry (LC-MS/MS) method (Agilent 6410 series, Santa Clara, CA, USA). A positive ionization mode with multiple reaction monitoring (MRM, m/z Q1/Q3) of 6G (m/z 277.1/177.1, retention time (RT) 2.0 min), 8G (m/z 305.1/177.1, RT 4.0 min), 10G (m/z 333.1/177.1, RT 7.7 min), 6S (m/z 277.1/137.1, RT 5.1 min), and IS (m/z 308.2/137.1, RT 3.4 min) was employed. The ion spray voltage was set at 3500 V, ionization temperature was set to 300 °C and drying gas flow rate was 10 L/min. Data acquisition and quantitation were performed using Mass Hunter software (Agilent Technologies, Wilmington, DE, USA). Separation was achieved using HP1100 series LC (Agilent Technologies) with an Agilent Zorbax reversed-phase (SB-C18, 2.1 × 50 mm, 5.0 μm) column. A gradient method was employed to separate the individual GE phenolics using mobile phase A (0.1% formic acid in water) and mobile phase B (Acetonitrile). The gradient elution method with 50% B at 0 min, 90% B at 5 min, held for 2.1 min, back to 50% B at 7.1 min with a flow rate of 0.2 mL/min. An injection volume of 2 μL was used for analysis. […]

[2] = Liver microsomal stability, mouse; format: in vitro ADME, CD1 mouse; conditions: protein 0.5 mg/mL
Experimental: (§1) Pooled liver microsomes from CD1 mouse, IGS Sprague-Dawley rat, Beagle dog, and mixed gender human were used for assays. Incubations (1 mL) consisted of liver microsomes (0.5 mg/mL), NADPH (1 mM) and 100 mM sodium phosphate buffer (pH 7.4). Following pre-incubation (10 min, 37 °C), reactions were initiated by spiking ACN/DMSO (80:20) stock solutions of GE phenolics (5 μL, 10 μM). Samples (100 μL) were withdrawn at 0, 5, 10, 15, 20 and 30 min and quenched with 200 μL acetonitrile containing internal standard. Concomitant NADPH-free control incubations were prepared similarly.

[3] = Liver microsomal stability, human; format: in vitro ADME; conditions: protein 0.5 mg/mL
Experimental: as §1

[4] = 250 mg/kg GE + 50 mg/kg KTZ oral, +KTZ −βgd

AUClast Ratio ([1]; +KTZ +βgd, reference GE group co-administered with KTZ untreated with βgd): 63 | AUClast Ratio ([1]; +KTZ +βgd, reference GE group untreated with βgd): 498 | AUClast Ratio ([1]; +KTZ −βgd, reference GE group untreated with βgd): 8 | Concentration Ratio (Total/Free) of GE Phenolics ([1]; 0 h): 0 | Concentration Ratio (Total/Free) of GE Phenolics ([1]; 0.087 h): 0 | Concentration Ratio (Total/Free) of GE Phenolics ([1]; 0.167 h): 0 | Concentration Ratio (Total/Free) of GE Phenolics ([1]; 0.25 h): 3659 | Concentration Ratio (Total/Free) of GE Phenolics ([1]; 0.5 h): 8723 | Concentration Ratio (Total/Free) of GE Phenolics ([1]; 1 h): 0 | Concentration Ratio (Total/Free) of GE Phenolics ([1]; 2 h): 53 | Concentration Ratio (Total/Free) of GE Phenolics ([1]; 3 h): 290 | Concentration Ratio (Total/Free) of GE Phenolics ([1]; 4 h): 491 | Concentration Ratio (Total/Free) of GE Phenolics ([1]; 6 h): 391 | Concentration Ratio (Total/Free) of GE Phenolics ([1]; 8 h): 0 | Concentration Ratio (Total/Free) of GE Phenolics ([1]; 12 h): 0 | AUC(0-t) ([1]; 250 mg/kg GE oral, −βgd): 37.7 ng·h/mL | Cmax ([1]; 250 mg/kg GE oral, −βgd): 27.2 ng/mL | Tmax ([1]; 250 mg/kg GE oral, −βgd): 2 h | AUC(0-t) [1, 4]: 300 ng·h/mL | Cmax [1, 4]: 257 ng/mL | Tmax [1, 4]: 0.5 h | concentration at 0 h ([1]; 250 mg/kg GE oral, 0 h, −βgd): 0 ng/mL | concentration at 0.087 h ([1]; 250 mg/kg GE oral, 0.087 h, −βgd): 0 ng/mL | concentration at 0.167 h ([1]; 250 mg/kg GE oral, 0.167 h, −βgd): 0.11 ± 0.08 ng/mL | concentration at 0.25 h ([1]; 250 mg/kg GE oral, 0.25 h, −βgd): 2.25 ± 1.73 ng/mL | concentration at 0.5 h ([1]; 250 mg/kg GE oral, 0.5 h, −βgd): 1.79 ± 1.82 ng/mL | concentration at 1 h ([1]; 250 mg/kg GE oral, 1 h, −βgd): 1.04 ± 0.79 ng/mL | concentration at 2 h ([1]; 250 mg/kg GE oral, 2 h, −βgd): 27.2 ± 38.4 ng/mL | concentration at 3 h ([1]; 250 mg/kg GE oral, 3 h, −βgd): 2.45 ± 1.73 ng/mL | concentration at 4 h ([1]; 250 mg/kg GE oral, 4 h, −βgd): 0.82 ± 1.16 ng/mL | concentration at 6 h ([1]; 250 mg/kg GE oral, 6 h, −βgd): 3.22 ± 4.03 ng/mL | concentration at 8 h ([1]; 250 mg/kg GE oral, 8 h, −βgd): 0.77 ± 0.57 ng/mL | concentration at 12 h ([1]; 250 mg/kg GE oral, 12 h, −βgd): 0.33 ± 0.44 ng/mL | concentration at 0 h ([1]; 250 mg/kg GE with 50 mg/kg ketoconazole oral, 0 h, −βgd): 0 ng/mL | concentration at 0.087 h ([1]; 250 mg/kg GE with 50 mg/kg ketoconazole oral, 0.087 h, −βgd): 0.31 ± 0.44 ng/mL | concentration at 0.167 h ([1]; 250 mg/kg GE with 50 mg/kg ketoconazole oral, 0.167 h, −βgd): 5.71 ± 4.25 ng/mL | concentration at 0.25 h ([1]; 250 mg/kg GE with 50 mg/kg ketoconazole oral, 0.25 h, −βgd): 35.9 ± 44.5 ng/mL | concentration at 0.5 h ([1]; 250 mg/kg GE with 50 mg/kg ketoconazole oral, 0.5 h, −βgd): 37900 ng/mL | concentration at 1 h ([1]; 250 mg/kg GE with 50 mg/kg ketoconazole oral, 1 h, −βgd): 104 ± 110 ng/mL | concentration at 2 h ([1]; 250 mg/kg GE with 50 mg/kg ketoconazole oral, 2 h, −βgd): 70900 ng/mL | concentration at 3 h ([1]; 250 mg/kg GE with 50 mg/kg ketoconazole oral, 3 h, −βgd): 65.2 ± 54.3 ng/mL | concentration at 4 h ([1]; 250 mg/kg GE with 50 mg/kg ketoconazole oral, 4 h, −βgd): 5.87 ± 1.18 ng/mL | concentration at 6 h ([1]; 250 mg/kg GE with 50 mg/kg ketoconazole oral, 6 h, −βgd): 1.09 ± 0.93 ng/mL | concentration at 8 h ([1]; 250 mg/kg GE with 50 mg/kg ketoconazole oral, 8 h, −βgd): 10.4 ± 11.1 ng/mL | concentration at 12 h ([1]; 250 mg/kg GE with 50 mg/kg ketoconazole oral, 12 h, −βgd): 0.74 ± 1.05 ng/mL | remaining at 0.5 h, 10 µM ([2]; CD1, pooled liver microsomes, pH 7.4, substrate 10 µM, n = 2, read-out: % Remaining at 30 min): 30% | Intrinsic Clearance ([2]; mouse liver microsomes, substrate 10 µM, 45 mg protein/g liver): 10.5 mL/min/g Liver | remaining at 0.5 h, 10 µM ([3]; both sexes, pooled liver microsomes, pH 7.4, substrate 10 µM, n = 2, read-out: % Remaining at 30 min): 56% | Intrinsic Clearance ([3]; human liver microsomes, substrate 10 µM, 45 mg protein/g liver): 6.6 mL/min/g Liver
SMILES: CCCCC[C@H](O)CC(=O)CCc1ccc(O)c(OC)c1 [6G, 6-gingerol]
